From US11759520B1, “Theranostics for protein misfolding diseases” (UNM Rainforest Innovations, priority 2018, dated 2023)

Assays:
Aβ40 fibrils [1] = target: T1, Aβ40 fibrils (Homo sapiens, UniProt P05067); assay: Effect of oxidation on Aβ40 fibril morphology and secondary structure (TEM, CD); format: biochemical; conditions: irradiated with photosensitizer
T1 construct: mixed with Aβ40 fibrils (5 μM) incubated in Tris pH 8.0 (A) or PB pH 7.4 (B)

Aβ40 monomers = Aβ40 monomers (Homo sapiens, UniProt P05067); assay: Photo-oxidation of Aβ40 monomers (DNPH dot blot, RP-HPLC, MS, amino acid analysis); format: biochemical; conditions: 4 hour irradiation
Procedure: To evaluate the potency of OPE to selectively photo-oxidize Aβ40 fibrils over the monomeric counterpart, the oxidation state of both Aβ40 fibrils and monomers were characterized and were compared to MB. The carbonyl content of the protein was monitored by DNPH dot blot, which increases as a result of histidine photooxidation.^20
DNPH dot blot was carried out on Aβ40 fibrils and monomers incubated in the dark or under irradiation between 0 to 6 hours (FIGS. 9A and 9B). […] Slightly higher carbonyl content in Aβ fibrils at time 0 h in the presence of MB could be due to short light exposure during sample preparation causing MB to photosensitize the oxidation of Aβ fibrils.
To confirm this observation, Aβ40 monomers were analyzed by reverse phase HPLC (RP-HPLC), mass spectrometry (MS), and amino acid analysis (FIGS. 10A and B), before and after irradiation in the presence of OPE1− and MB.

Aβ40 fibrils [2] = target: T1, Aβ40 fibrils; assay: Fluorescence sensing of Aβ40 fibrils over monomers (ADF, LOD); format: binding
α-synuclein = assay: Excitation and emission spectra with α-synuclein isoforms; format: binding; conditions: 6 days of incubation
Aβ40 fibrils [3] = target: T1, Aβ40 fibrils; assay: Fluorescence sensing of Aβ40 fibrils over monomers (ADF, LOD); format: binding; conditions: 5 to 1 protein to sensor molar ratio
Procedure: Quantitative assessment of OPE sensor performance towards A1340 fibrils at a 5 to 1 protein to sensor molar ratio was analyzed by calculating an amyloid detector factor using the equation shown in FIG. 13, where F(dye-in-buffer), F(dye+fibrils) and F(dye+monomers) are the integrated emission intensities for sensor alone, sensor in the presence of fibrils, and sensor in the presence of monomers, respectively. Using this equation, positive ADF values indicate selective sensing of fibrils over monomers, while negative ADF values indicate selective sensing of monomers. ADF values close to zero indicate no selective sensing.

Aβ42 peptide = target: T2, Aβ42 peptide (Homo sapiens, UniProt P05067); assay: Fluorescence spectra with unincubated (oligomeric) and incubated (fibrillar) Aβ42 peptide; format: binding; conditions: ThT 20 μM, OPE 1 μM, Aβ42 5 μM
T2 construct: in the presence of unincubated (oligomeric) and incubated (fibrillar) Aβ42 peptide (5 μM)

[4] = Aβ40 fibrils produced in pH 7.4 PB
[5] = Aβ40 fibrils produced in pH 8.0 Tris

T1 sequence (P05067 672-711 limits assumed): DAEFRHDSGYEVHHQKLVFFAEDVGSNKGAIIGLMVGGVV
T2 sequence (P05067 672-713 limits assumed): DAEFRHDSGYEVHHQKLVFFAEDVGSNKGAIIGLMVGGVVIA
Sequence of Aβ40 monomers (P05067 672-711 limits assumed): as the sequence (P05067 672-711 limits assumed) above

Structure (SMILES) | Aβ40 fibril morphology after irradiation (TEM) (Aβ40 fibrils [1]) | changes of Aβ40 monomers after irradiation (Aβ40 monomers) | LOD (Limit of Detection), Aβ40 in PB (Aβ40 fibrils [2]; [4]) | LOD (Limit of Detection), Aβ40 in Tris (Aβ40 fibrils [2]; [5]) | detection of prefibrillar α-synuclein aggregates (α-synuclein) | ADF (Amyloid Detection Factor), Aβ40 in PB (Aβ40 fibrils [3]; [4]) | ADF (Amyloid Detection Factor), Aβ40 in Tris (Aβ40 fibrils [3]; [5]) | fluorescence increase with fibrillar (incubated) Aβ42 (Aβ42 peptide) | fluorescence increase with oligomeric (unincubated, prefibrillar) Aβ42 (Aβ42 peptide)
CN(C)c1ccc2nc3ccc(=[N+](C)C)cc-3sc2c1 [MB, methylene blue, reference compound] | fibrils dissociated and broke into shorter structures | become more hydrophilic, present higher m/z ratio, and have a lower histidine content | – | – | – | – | – | – | –
Cc1ccc2c(c1)sc(-c1ccc(N(C)C)cc1)[n+]2C.[Cl-] [ThT, thioflavin T, reference compound] | – | – | 0.69 ± 0.05 µM | 0.65 ± 0.05 µM | only able to detect A53T aggregates after 6 days of incubation | 0.23 +/− 0.03 | 0.53 +/− 0.1 | large fluorescence increases | small fluorescence increases
